Source: ChEMBL document CHEMBL1201862, “PubChem BioAssay data set” (2004)
Activity calls are given as the source filed them.

Tests used:
[1] = target: T1, Tyrosine-protein phosphatase non-receptor type 11 (Homo sapiens, UniProt Q06124); test: SHP2 phosphatase inhibition, dose response, selectivity assay for STEP inhibitor project, biochemical (AID 602367); type: functional; conditions: read-out: IC50_Mean
T1 sequence (Q06124 whole entry): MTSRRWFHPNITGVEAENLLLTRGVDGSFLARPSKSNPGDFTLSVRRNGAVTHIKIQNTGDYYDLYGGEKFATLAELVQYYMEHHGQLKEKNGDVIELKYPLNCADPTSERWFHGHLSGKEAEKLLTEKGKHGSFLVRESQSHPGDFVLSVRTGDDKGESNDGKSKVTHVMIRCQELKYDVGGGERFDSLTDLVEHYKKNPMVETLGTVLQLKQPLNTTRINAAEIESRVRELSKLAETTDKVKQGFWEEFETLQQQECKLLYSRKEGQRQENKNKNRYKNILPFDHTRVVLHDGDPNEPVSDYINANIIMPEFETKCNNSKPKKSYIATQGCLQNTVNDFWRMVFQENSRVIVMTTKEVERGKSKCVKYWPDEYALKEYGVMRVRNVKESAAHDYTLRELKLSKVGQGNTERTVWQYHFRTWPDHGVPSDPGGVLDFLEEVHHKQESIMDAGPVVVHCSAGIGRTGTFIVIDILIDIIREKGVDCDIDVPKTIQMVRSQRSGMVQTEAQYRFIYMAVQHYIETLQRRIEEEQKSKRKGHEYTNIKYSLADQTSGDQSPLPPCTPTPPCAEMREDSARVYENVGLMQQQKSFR

[2] = target: T2, Tyrosine-protein phosphatase non-receptor type 5 (Homo sapiens, UniProt P54829); test: STEP phosphatase inhibitors, confirmation, biochemical, fluorescence intensity, uHTS hits (AID 602372); type: functional; conditions: read-out: IC50_Mean
T2 sequence (P54829 whole entry): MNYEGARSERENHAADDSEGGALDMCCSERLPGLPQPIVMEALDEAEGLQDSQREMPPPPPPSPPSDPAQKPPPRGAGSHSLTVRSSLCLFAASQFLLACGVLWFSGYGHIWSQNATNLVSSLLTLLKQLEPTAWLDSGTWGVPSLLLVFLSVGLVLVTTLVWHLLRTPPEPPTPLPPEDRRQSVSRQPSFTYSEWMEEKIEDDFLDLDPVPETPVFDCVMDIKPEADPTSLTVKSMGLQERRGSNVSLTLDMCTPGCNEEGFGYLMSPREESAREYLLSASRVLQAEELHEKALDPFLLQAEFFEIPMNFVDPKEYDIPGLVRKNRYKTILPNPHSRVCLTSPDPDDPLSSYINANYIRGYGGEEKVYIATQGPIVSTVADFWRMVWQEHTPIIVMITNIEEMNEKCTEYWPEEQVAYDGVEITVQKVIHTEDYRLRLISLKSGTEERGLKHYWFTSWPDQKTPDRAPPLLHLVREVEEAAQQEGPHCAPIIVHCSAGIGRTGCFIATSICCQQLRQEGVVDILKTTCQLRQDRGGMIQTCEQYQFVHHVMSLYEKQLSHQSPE

[3] = target: Dual specificity protein phosphatase 3 (Homo sapiens, UniProt P51452); test: VHR phosphatase inhibition, dose response, selectivity assay for STEP inhibitor project, biochemical (AID 602374); type: functional; conditions: read-out: IC50_Mean
Dual specificity protein phosphatase 3, sequence (P51452 whole entry): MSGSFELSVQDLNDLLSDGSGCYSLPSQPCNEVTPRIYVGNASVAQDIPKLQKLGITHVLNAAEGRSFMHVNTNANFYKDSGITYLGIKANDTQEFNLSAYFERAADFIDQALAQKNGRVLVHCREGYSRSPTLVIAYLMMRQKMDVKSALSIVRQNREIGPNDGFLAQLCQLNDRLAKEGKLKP

[4] = target: Tyrosine-protein phosphatase non-receptor type 22 (Homo sapiens, UniProt Q9Y2R2); test: PTPN22 phosphatase inhibition, dose response, selectivity assay for STEP inhibitor project, biochemical (AID 624241); type: functional
Tyrosine-protein phosphatase non-receptor type 22, sequence (Q9Y2R2 whole entry): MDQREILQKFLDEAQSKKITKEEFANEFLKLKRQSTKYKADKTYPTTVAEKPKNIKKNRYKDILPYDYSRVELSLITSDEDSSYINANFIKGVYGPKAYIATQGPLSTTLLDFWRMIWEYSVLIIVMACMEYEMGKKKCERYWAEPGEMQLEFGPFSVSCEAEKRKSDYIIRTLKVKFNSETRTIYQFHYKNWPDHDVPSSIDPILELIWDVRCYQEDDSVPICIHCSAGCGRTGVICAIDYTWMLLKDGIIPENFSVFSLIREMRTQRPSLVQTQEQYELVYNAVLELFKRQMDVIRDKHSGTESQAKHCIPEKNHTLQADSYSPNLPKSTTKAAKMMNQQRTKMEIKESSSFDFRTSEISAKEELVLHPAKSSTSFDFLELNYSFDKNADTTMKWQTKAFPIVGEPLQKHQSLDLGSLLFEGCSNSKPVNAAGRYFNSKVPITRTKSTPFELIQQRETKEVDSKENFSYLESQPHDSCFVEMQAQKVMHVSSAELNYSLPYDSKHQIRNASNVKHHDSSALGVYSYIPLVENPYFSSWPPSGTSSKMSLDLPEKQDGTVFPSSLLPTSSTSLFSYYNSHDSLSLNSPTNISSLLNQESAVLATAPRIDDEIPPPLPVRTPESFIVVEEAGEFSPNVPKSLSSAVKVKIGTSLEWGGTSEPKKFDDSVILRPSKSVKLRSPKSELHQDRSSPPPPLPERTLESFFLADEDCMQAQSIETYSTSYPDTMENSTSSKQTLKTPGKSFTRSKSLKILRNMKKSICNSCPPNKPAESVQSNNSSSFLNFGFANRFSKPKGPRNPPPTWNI

[5] = target: T3, Corticotropin-releasing factor receptor 2/Corticotropin-releasing factor-binding protein (Homo sapiens, UniProt P24387+Q13324); test: activators of CRF receptor 2 with binding protein – uHTS hits, confirmation (AID 602473); type: functional; conditions: read-out: EC50_Mean
T3 sequence (Q13324 whole entry): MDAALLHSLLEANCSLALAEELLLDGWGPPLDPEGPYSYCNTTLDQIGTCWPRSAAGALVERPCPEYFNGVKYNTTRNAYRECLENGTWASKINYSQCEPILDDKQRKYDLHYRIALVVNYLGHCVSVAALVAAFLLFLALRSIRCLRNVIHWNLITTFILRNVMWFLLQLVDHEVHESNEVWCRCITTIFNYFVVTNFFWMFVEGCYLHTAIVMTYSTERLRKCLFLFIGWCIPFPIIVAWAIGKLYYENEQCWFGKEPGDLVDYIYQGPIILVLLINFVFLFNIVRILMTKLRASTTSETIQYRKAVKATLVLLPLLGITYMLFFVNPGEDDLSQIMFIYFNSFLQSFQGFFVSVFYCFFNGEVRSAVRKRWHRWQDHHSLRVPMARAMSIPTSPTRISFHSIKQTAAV
T3 sequence (P24387 whole entry): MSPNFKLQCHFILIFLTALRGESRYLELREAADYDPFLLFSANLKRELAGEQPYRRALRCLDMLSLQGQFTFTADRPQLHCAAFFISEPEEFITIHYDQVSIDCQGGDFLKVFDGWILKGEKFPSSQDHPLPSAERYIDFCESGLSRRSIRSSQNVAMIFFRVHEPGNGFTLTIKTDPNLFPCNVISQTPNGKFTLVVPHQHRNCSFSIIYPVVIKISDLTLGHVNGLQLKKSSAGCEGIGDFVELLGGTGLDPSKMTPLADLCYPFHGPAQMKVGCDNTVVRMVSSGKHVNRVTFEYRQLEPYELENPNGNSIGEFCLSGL

[6] = target: DNA repair and recombination protein RAD54-like (Homo sapiens, UniProt Q92698); test: inhibitors of human RAD54 branch migration, confirmation, biochemical, fluorescence, cherry-picked samples, dose series (AID 651657); type: functional
DNA repair and recombination protein RAD54-like, sequence (Q92698 whole entry): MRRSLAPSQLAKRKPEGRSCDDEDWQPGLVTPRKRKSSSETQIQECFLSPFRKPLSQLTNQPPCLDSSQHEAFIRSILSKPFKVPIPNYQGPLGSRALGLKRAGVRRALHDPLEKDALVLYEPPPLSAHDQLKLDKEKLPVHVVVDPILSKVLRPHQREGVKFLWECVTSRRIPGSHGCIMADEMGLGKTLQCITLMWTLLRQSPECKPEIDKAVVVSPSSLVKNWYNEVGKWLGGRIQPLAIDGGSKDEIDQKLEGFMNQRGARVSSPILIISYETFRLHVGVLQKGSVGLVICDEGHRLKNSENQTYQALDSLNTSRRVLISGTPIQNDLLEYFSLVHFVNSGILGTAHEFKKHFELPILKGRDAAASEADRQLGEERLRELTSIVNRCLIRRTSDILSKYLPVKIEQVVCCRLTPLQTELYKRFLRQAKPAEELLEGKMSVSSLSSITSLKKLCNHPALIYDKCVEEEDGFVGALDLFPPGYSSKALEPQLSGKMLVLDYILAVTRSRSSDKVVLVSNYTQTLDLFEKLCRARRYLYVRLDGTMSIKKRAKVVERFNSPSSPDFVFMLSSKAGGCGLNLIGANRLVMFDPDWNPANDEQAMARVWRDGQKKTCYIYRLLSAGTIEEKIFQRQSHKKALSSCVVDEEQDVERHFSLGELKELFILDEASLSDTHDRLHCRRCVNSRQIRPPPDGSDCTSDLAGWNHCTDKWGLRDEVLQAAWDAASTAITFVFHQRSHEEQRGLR

Vero = test: cells; type: functional; conditions: Chlorocebus sabaeus
[7] = target: 72 kDa type IV collagenase (Homo sapiens, UniProt P08253); test: Dose Response validation of uHTS RPN11 inhibitor hits using a MMP-2 Fluorescence assay.; type: functional
72 kDa type IV collagenase, sequence (P08253 whole entry): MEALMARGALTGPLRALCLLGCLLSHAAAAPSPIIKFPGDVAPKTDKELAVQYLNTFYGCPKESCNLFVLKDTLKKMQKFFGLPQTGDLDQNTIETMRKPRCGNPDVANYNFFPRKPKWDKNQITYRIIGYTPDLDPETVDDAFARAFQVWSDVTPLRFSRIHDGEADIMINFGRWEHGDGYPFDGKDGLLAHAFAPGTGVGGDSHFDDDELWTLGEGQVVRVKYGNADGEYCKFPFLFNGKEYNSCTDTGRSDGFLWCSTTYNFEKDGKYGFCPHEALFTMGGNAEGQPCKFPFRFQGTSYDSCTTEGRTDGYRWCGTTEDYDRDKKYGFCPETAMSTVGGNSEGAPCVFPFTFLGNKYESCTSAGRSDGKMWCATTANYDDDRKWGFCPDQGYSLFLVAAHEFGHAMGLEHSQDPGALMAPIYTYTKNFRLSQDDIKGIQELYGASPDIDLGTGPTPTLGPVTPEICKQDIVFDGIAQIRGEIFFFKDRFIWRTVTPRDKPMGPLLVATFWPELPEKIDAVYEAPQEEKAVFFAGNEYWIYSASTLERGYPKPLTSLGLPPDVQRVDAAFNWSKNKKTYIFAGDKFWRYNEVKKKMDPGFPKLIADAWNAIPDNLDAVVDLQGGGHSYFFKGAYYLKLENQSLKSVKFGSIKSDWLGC

[8] = target: 26S proteasome non-ATPase regulatory subunit 14 (Homo sapiens, UniProt O00487); test: inhibition of proteasome subunit RPN11 – biochemical, fluorescence polarization, uHTS hits, confirmation (AID 602368); type: functional
26S proteasome non-ATPase regulatory subunit 14, sequence (O00487 whole entry): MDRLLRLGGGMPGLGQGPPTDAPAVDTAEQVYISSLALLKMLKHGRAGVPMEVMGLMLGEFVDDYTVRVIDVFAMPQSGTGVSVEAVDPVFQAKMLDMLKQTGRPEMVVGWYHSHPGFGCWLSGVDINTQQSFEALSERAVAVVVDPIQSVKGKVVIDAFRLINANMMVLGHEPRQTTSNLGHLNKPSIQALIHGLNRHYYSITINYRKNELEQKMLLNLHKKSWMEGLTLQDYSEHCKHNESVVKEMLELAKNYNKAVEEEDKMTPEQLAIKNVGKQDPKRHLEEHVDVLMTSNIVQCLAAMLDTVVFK

Prothrombin = Prothrombin (Bos taurus, UniProt P00735); test: thrombin inhibition, dose response, biochemical, fluorescence polarization, uHTS hits (AID 602369); type: functional
[9] = target: T4, DNA repair protein RAD52 homolog (Homo sapiens, UniProt P43351); type: functional, biochemical
T4 sequence (P43351 whole entry): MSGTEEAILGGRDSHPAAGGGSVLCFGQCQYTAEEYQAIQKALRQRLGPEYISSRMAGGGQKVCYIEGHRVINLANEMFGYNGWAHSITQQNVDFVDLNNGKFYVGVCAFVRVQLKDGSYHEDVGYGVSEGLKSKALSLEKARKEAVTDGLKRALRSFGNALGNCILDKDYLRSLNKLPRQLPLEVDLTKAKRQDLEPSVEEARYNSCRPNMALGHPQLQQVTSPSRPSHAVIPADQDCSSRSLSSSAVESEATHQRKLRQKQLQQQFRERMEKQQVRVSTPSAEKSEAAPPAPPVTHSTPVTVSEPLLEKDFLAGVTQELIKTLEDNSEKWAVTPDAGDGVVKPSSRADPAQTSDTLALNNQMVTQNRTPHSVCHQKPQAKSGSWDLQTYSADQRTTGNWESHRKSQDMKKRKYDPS

Caspase-3 = target: T5, Caspase-3 (Homo sapiens, UniProt P42574); test: Dose-response confirmation of uHTS inhibitor hits of Sentrin-Specific Protease 8 in a Caspase-3 Fluorescence assay.; type: functional
T5 sequence (P42574 whole entry): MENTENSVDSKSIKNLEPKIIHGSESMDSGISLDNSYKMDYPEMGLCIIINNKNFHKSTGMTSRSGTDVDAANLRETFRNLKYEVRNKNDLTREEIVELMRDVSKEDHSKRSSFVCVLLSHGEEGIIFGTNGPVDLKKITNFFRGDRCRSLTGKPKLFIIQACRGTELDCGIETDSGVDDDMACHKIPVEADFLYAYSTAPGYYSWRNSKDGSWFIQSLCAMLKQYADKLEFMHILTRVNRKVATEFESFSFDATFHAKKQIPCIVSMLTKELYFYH

[10] = target: T6, Sentrin-specific protease 8 (Homo sapiens, UniProt Q96LD8); type: functional
T6 sequence (Q96LD8 whole entry): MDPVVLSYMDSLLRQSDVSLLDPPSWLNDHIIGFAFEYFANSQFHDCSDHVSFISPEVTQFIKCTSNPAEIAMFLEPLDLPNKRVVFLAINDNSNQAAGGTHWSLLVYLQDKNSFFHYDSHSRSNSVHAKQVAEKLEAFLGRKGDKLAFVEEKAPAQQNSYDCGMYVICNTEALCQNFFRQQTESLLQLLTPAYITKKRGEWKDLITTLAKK

[11] = target: T6, Sentrin-specific protease 8; type: functional; remark: listed apart in the source

**Q.** How did the IC50 [1] turn out when `COc1ccccc1NS(=O)(=O)c1cc(NC(=O)c2sccc2C)ccc1N1CCCC1` was run?
**A.** 0.665 µM (active)

**Q.** And the IC50 [2]?
**A.** 2.73 µM (active)

**Q.** And the IC50 [3]?
**A.** 0.163 µM (active)

**Q.** What about the IC50 [4] of the same compound?
**A.** 25.9 µM (inactive)

**Q.** For `O=c1c2ccccc2sc2ccc(NCCCN3CCOCC3)cc12`, which EC50 [5] is on record?
**A.** 7.98 µM (active)

**Q.** What about the AC50 [6] of the same compound?
**A.** 31.2 µM (active)

**Q.** And the CC50 (Vero)?
**A.** > 25 µM (active)

**Q.** `CCn1c(SCC(=O)c2c[nH]c3ccccc23)nnc1-c1cccs1` was tested. Which IC50 [7] did it give?
**A.** > 100 µM (inactive)

**Q.** What about the IC50 [8] of the same compound?
**A.** 24.3 µM (active)

**Q.** What about the IC50 (Prothrombin) of the same compound?
**A.** 60.5 µM (active)

**Q.** How did the IC50 [7] turn out when `Cc1ccc(N2C(=O)/C(=C\NN3CCCCC3c3cccnc3)C(=O)NC2=S)cc1` (stereo not drawn) was run?
**A.** > 100 µM (inactive)

**Q.** What about the IC50 [8] of the same compound?
**A.** 31.7 µM (active)

**Q.** What about the IC50 (Prothrombin) of the same compound?
**A.** 71.3 µM (active)

**Q.** With `N=c1n(CCN2CCCCC2)c2ccccc2n1CC(=O)c1cccc([N+](=O)[O-])c1` as the compound, how does the AC50 [9] read?
**A.** 9.9 µM (active)

**Q.** And the AC50 [6]?
**A.** 23.7 µM (active)

**Q.** Which IC50 (Caspase-3) does the source give for `O=C(CCC(=O)N1CCc2ccccc2C1)N1CCN(S(=O)(=O)c2ccccc2)CC1` here?
**A.** 50 µM (active)

**Q.** And the IC50 [10]?
**A.** 12.9 µM (active)

**Q.** What about the IC50 [11] of the same compound?
**A.** 22.2 µM (active)
